According to PubChem BioAssay (NCI):
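48-hour exposure; five concentrations; linearly interpolated endpoints. TGI: total growth inhibition.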

Assays:
Test in all cases: NCI-60 cell line screen, 48 h
BT-549 breast = test system: BT-549 breast
SNB-75 CNS = test system: SNB-75 CNS
HT29 colon = test system: HT29 colon
HS 578T breast = test system: HS 578T breast
SK-MEL-5 melanoma = test system: SK-MEL-5 melanoma
SF-295 CNS = test system: SF-295 CNS
OVCAR-3 ovarian = test system: OVCAR-3 ovarian
LOX IMVI melanoma = test system: LOX IMVI melanoma
HOP-92 NSCLC = test system: HOP-92 NSCLC
COLO 205 colon = test system: COLO 205 colon

| SMILES | TGI (BT-549 breast) [µM] | TGI (SNB-75 CNS) [µM] | TGI (HT29 colon) [µM] | TGI (HS 578T breast) [µM] | TGI (SK-MEL-5 melanoma) [µM] | TGI (SF-295 CNS) [µM] | TGI (OVCAR-3 ovarian) [µM] | TGI (LOX IMVI melanoma) [µM] | TGI (HOP-92 NSCLC) [µM] | TGI (COLO 205 colon) [µM] |
| --- | --- | --- | --- | --- | --- | --- | --- | --- | --- | --- |
| CCOC(=O)CSc1nc(N)c2c(-c3ccccc3)c3c(nc2n1)CCCC3 | > 100 | > 100 | > 100 | > 100 | > 100 | > 100 | > 100 | > 100 | > 100 | > 100 |
| C[C@@H]1CC[C@@]2(C)C(C(=O)O)=CCCC2[C@@]1(C)CC(=O)c1ccoc1 (stereo not given in full) | > 25 | > 25 | > 25 | > 25 | > 25 | > 25 | > 25 | > 25 | > 25 | > 25 |
| Cc1nc2ccc(Cl)cc2c(-n2ccnc2)c1CCn1ccnc1 | 69.7 | 72.8 | 41.7 | 49.1 | 46.4 | > 100 | > 100 | > 100 | 57.8 | 41.5 |
| O=C1C=CC2(O[C@H](c3ccccc3)[C@@H](c3ccccc3)O2)[C@H](Sc2ccccc2O)C1 | 1.46 | 8.16 | 1.45 | 7.88 | 2.22 | 15.6 | 1.51 | 0.338 | 1.32 | 1.62 |
| Cn1c2ccccc2c2ccc3c(c21)C(=O)c1ccc2c4ccccc4n(C)c2c1C3=O | > 100 | > 100 | > 100 | > 100 | > 100 | > 100 | > 100 | > 100 | > 100 | > 100 |
| CC(C)NC(=O)OCc1c(COC(=O)NC(C)C)n(C)c2c1ccc1sccc12 | 10.7 | 32.4 | > 82.6 | 34.6 | 26.3 | > 87.7 | 36.9 | > 53.1 | 27.3 | 37.9 |
| COc1ccc2nc(NC(=O)/C(C#N)=C/c3ccccc3)sc2c1 | > 100 | > 87.8 | > 96.1 | > 100 | > 73.6 | > 100 | > 100 | > 100 | > 100 | > 100 |
| O=C(CC(NC(=O)C(F)(F)F)C(=O)O)OCc1ccccc1 (stereo not given) | > 100 | > 100 | > 100 | > 100 | > 100 | > 100 | > 100 | > 100 | > 100 | > 100 |
| CC(C)C(Br)CCC1=CCC(Br)(Br)C1 (stereo not given) | 34.9 | 23.3 | 28.6 | 47.4 | 18.3 | 33.4 | 25.7 | 3.05 | 19.5 | 29.6 |
| NS(=O)(=O)c1nnc(NC(=O)N(c2ccccc2)c2ccccc2)s1 | 42.2 | 72.4 | > 100 | 73 | 67 | > 100 | 69.7 | 40.2 | 53 | > 100 |
| CC(=O)c1ccc(Oc2c3ccccc3nc3ccccc23)cc1 | 27.1 | 29.7 | 6.69 | 31.3 | 28.6 | 28.2 | 21 | 17.9 | 25.6 | 7.55 |
| O=C(/C=C/c1ccc(Cl)cc1)Oc1ccc(C=C2CCC/C(=C\c3ccc(OC(=O)/C=C/c4ccc(Cl)cc4)cc3)C2=O)cc1 | > 100 | > 100 | > 100 | > 100 | > 100 | > 100 | > 100 | > 100 | > 100 | > 100 |
| O=c1[nH]c(NCc2ccncc2)nc2nc[nH]c12 | > 100 | > 100 | > 100 | > 100 | > 100 | > 100 | > 100 | > 100 | > 100 | > 100 |
| NC1=CC(=O)c2c(O)ccc(O)c2C1=O | 30.9 | 83.3 | 19.8 | 68.3 | 20.3 | 40.9 | 8.45 | 33.1 | 38.2 | 20.9 |
| Cc1nnc2n(c1=O)CCCN2C | > 100 | > 100 | > 100 | > 100 | > 100 | > 100 | > 100 | > 100 | > 100 | > 100 |
| COC(=O)/C=C(/C=C1/C(C#N)=C(N)N(c2ccc(Cl)cc2)C1(C)/C(=C\C(=O)OC)C(=O)OC)C(=O)OC (stereo not given) | 30.2 | 63.3 | 39 | > 100 | 29.4 | > 100 | 42.3 | 32.4 | 48 | 29.8 |
| CCOC1C=CC(=O)C(CO)O1 (stereo not given) | 26.1 | 33.5 | 25.4 | 49 | 37.1 | 33.2 | 19.1 | 17.8 | 8.29 | 30.4 |

| SMILES | TGI (BT-549 breast) [µM] | TGI (SNB-75 CNS) [µM] | TGI (HT29 colon) [µM] | TGI (HS 578T breast) [µM] | TGI (SK-MEL-5 melanoma) [µM] | TGI (SF-295 CNS) [µM] | TGI (OVCAR-3 ovarian) [µM] | TGI (LOX IMVI melanoma) [µM] | TGI (HOP-92 NSCLC) [µM] | TGI (COLO 205 colon) [µM] |
| --- | --- | --- | --- | --- | --- | --- | --- | --- | --- | --- |
| CC(=O)Nc1nc(Cl)cc(NCC2(CO)CCC2)n1 | > 100 | > 100 | > 100 | > 100 | > 100 | > 100 | > 100 | > 100 | > 100 | > 100 |
| OCc1ccc2c(c1)CC1(C2)Cc2cc3c(cc2C1O)CCC3 (stereo not given) | 16 | 16.8 | 17.5 | 11.4 | 12 | 12.4 | > 50.9 | 19.4 | 34.1 | 10.3 |
| [N-]=[N+]=CC(=O)C1CCCN1C(=O)c1ccccc1 (stereo not given) | > 10 | 8.26 | > 10 | > 10 | > 10 | > 10 | > 10 | > 10 | > 10 | > 10 |
| O=c1oc2ccccc2c(O)c1Cc1ccc(Cc2c(O)c3ccccc3oc2=O)cc1 | > 100 | > 100 | > 100 | > 100 | > 100 | > 100 | > 100 | > 100 | > 100 | > 100 |
| COC(=O)c1ccccc1C1CN=NC12Cc1c(ccc(C)c1C)C2=O (stereo not given) | > 100 | 89.1 | > 100 | > 100 | > 100 | > 100 | > 100 | > 100 | 84.2 | > 100 |
| O=C(NCc1ccccc1)c1cc2ccccc2oc1=Nc1cccc(C(F)(F)F)c1 | > 100 | > 100 | > 100 | > 100 | 70.8 | > 100 | > 100 | > 100 | > 100 | 90.2 |
| CN(C)CCN(c1ccccn1)c1ccccn1 | > 100 | > 100 | > 100 | > 100 | > 100 | > 100 | > 100 | > 100 | > 100 | > 100 |
| CC(C)Oc1cccc(N2C(n3ccnc3)=Nc3ccncc3S2(=O)=O)c1 | 29 | 33.3 | 34.9 | 38.5 | 26.3 | > 100 | 21.9 | 31.9 | 25.7 | 24.7 |
| OCc1cn(Cc2ccccc2)c2ccccc12 | 23.1 | 5.64 | > 84.5 | 30.4 | > 47.2 | > 100 | 6.96 | > 45.3 | 22.9 | 13.6 |
| Cc1ccc(-c2cc(-c3ccco3)c(C#N)c(=S)[nH]2)cc1 | > 100 | > 100 | > 100 | > 100 | 61.9 | > 100 | > 100 | > 100 | > 100 | > 100 |
| COC(=O)/C=C(\C)CC/C=C(\C)CCC1OC1(C)C (stereo not given) | 21.8 | 38.8 | 27.6 | 35.2 | 22.4 | 21.3 | 21.8 | 11 | 22.8 | 30 |
| CC1=CC2C3(C)C(C)(C(C)=CP3(=O)c3c(C(C)C)cc(C(C)C)cc3C(C)C)C1P2(=O)c1c(C(C)C)cc(C(C)C)cc1C(C)C (stereo not given) | 4.58 | 12.1 | 6.29 | 6.25 | 3 | 6.72 | 6.43 | 3.26 | 7.97 | 3.3 |
| O=CC(I)=C(c1ccccc1)c1ccccc1 | 30 | > 52.7 | 29.4 | 63 | 31.9 | 31.6 | 17.7 | 28.6 | 38.1 | 32.4 |
| CN(O)C(=O)/C=C/c1ccc(OCc2cccc(Cl)c2)cc1 | 85.3 | > 100 | 34.9 | > 100 | 78.2 | > 100 | > 100 | 30.5 | > 100 | > 100 |
| CC1(C)CC(=O)C2=C(C1)C(c1ccccc1Cl)C1C(=O)CC(C)(C)CC1(O)O2 (stereo not given) | > 100 | > 100 | > 100 | > 100 | > 100 | > 31.6 | > 100 | > 100 | > 100 | > 31.6 |
| CC(=O)O[C@@H](c1nccn1Cc1ccccc1)[C@H]1OC(C)(C)O[C@@H]1[C@H]1COC(C)(C)O1 | > 100 | > 100 | > 100 | > 100 | > 100 | > 100 | > 100 | > 100 | > 100 | > 100 |
| O=c1oc2ccc3ccccc3c2cc1-c1cn2ccsc2n1 | 32.6 | > 100 | 37.8 | > 100 | 56.5 | > 100 | 43.8 | 31.7 | 30 | 33.3 |
